From patent publication US6680178B2, “Profiling of protease specificity using combinatorial fluorogenic substrate libraries” (The Regents of the University of California, priority 2000, dated 2004)
Non-standard residues stand in square brackets, D forms with d. Residues, ends and D or L forms follow the SMILES beside them. *: point of attachment. ACC = NC(=O)Cc1cc(=O)oc2cc(N*)ccc12; AMC = Cc1cc(=O)oc2cc(N*)ccc12; Nle = CCCC[C@H](N)C(=O)O; CH2Cl = ClC*

Columns and labels:
thrombin [1] = target: T1, thrombin (Homo sapiens, UniProt P00734); assay: Single substrate kinetic assay with thrombin (ACC vs AMC leaving group); format: biochemical; details: thrombin 5-20 nM
T1 construct: Human thrombin, plasmin, and factor Xa were used as received; purchased Haematologic Technologies Inc. (Essex Jct., Vt.)
Description: (§1) Thrombin concentration ranged from 5-20 nM. The final concentration of substrate ranged from 0.005-2 mM, the concentration of DMSO in the assay was less than 5%. Hydrolysis of AMC and ACC substrates was monitored fluorometrically with an excitation wavelength of 380 nm and emission wavelength of 460 nm on a Fluoromax-2 spectrofluorometer. Cruzain (10 nM) was incubated with 600 μM of the Ac-Leu-Thr-Phe-Lys-ACC substrate. Aliquots were removed at various time points and applied to a C-18 reverse-phase HPLC column with a 10-40% gradient of 95:4.9:0.1 Acetonitrile:H2O:TFA. MALDI (PE Biosystems Voyager) mass spectrometry data was collected on the HPLC fractions.

[2] = Fluorescence properties of free and peptidyl-derivatized ACC and AMC; format: physicochemical; details: for λmax, em / λmax, ex: 25° C.; for RFU/nM1 / RFU/nM2: λex = 380 nm; for RFU/nM1: λem = 450 nm; for RFU/nM2: λem = 460 nm
Description: The fluorescence of free ACC and peptidyl-derivatized ACC was detected on a Spex fluorometer thermostated to 25° C. Excitation wavelengths of 300-410 nm, 5 nm intervals, were used with emission wavelengths of 410-500 nm, 5 nm intervals, to determine optimal excitation and emission parameters.

βI Tryptase [3] = target: T2, βI Tryptase (Homo sapiens, UniProt Q15661); assay: Single substrate kinetic analysis, βI tryptase; format: biochemical; details: for Km: βI Tryptase, 30° C., pH 7.5
T2 construct: Secreted mature βI and βII tryptases were purified to homogeneity; made in house; host or cells: Pichia pastoris GS115
Description: (§2) Tryptase activity was monitored at 30° C. in assay buffer containing 100 mM HEPES pH 7.5 and 10% glycerol. Substrate stock solutions were prepared in DMSO. The final concentration of substrate ranged from 0.005-2 mM. The concentration of DMSO in the assay was less than 5%. The tryptase concentration was 5 nM. Hydrolysis of ACC substrates was monitored fluorometrically with an excitation wavelength of 380 nm and emission wavelength of 450 nm on a Fluoromax-2 spectrofluorimeter (JY Horiba).

βII Tryptase [4] = target: T3, βII Tryptase (Homo sapiens, UniProt Q15661, N132K); assay: Single substrate kinetic analysis, βII tryptase; format: biochemical; details: for Km: βII Tryptase, 30° C., pH 7.5
T3 construct: Secreted mature βI and βII tryptases were purified to homogeneity; made in house; host or cells: Pichia pastoris GS115
Description: as §2

cruzain = target: T4, cruzain (Trypanosoma cruzi, UniProt P25779); assay: Incubation of single substrate with cruzain and analysis of cleavage products (HPLC, MALDI); format: biochemical; details: cruzain 10 nM, 600 μM substrate; data not shown
T4 construct: made in house
Description: as §1

thrombin [5] = target: T1, thrombin; assay: Protease inhibition by Ac-PRNK-cmk, residual activity; format: biochemical; details: 100 μM Ac-PRNK-cmk, 5 minutes incubation, enzyme 1 nM
Description: (§3) Progress curves were obtained for tryptase (1 nM) inactivation by multiple concentrations of Ac-PRNK-cmk (50 nM to 10 μM). Activity was monitored at 30° C. in activity buffer with 100 μM Ac-PRNK-ACC substrate. The rate constant for loss of enzyme activity, kobs, was determined from a non-linear regression of the progress curve data. kobs varied linearly with inhibitor concentration. Therefore, kass, the rate constant for the inactivation of enzyme with inhibitor, was determined by linear regression analysis (Bieth, J. G. Methods in Enzymology 248: 59-84 (1995)). Several P1-basic-preferring proteases were monitored for inhibition by Ac-PRNK-cmk as follows: tryptase bI (50 nM), tryptase bII (50 nM), factor Xa (50 nM), tPA (50 nM), uPA (50 nM), thrombin (1 nM), and plasmin (5 nM) were incubated for 5 minutes with 0 μM, 10 μM, 100 μM Ac-PRNK-cmk. After incubation, residual activity was monitored as follows: Ac-PRNK-ACC was added to a final concentration of 5 μM to the samples containing tryptase βI and βII; Ac-GTAR-ACC (5 μM) was added to the factor Xa and tPA samples; Ac-QFAR-ACC (5 μM) was added to the uPA samples; Ac-nTPR-ACC (5 μM) was added to the thrombin samples; and Ac-KQWK-ACC (5 μM) was added to plasmin samples.
as §3, with “(Bieth” for “(Bieth, J. G. Methods in Enzymology 248: 59-84”, “bIl” for “bII”

uPA = target: T5, uPA (Homo sapiens, UniProt P00749); assay: as above; format: biochemical; details: 100 μM Ac-PRNK-cmk, 5 minutes incubation, enzyme 50 nM
T5 construct: purchased American Diagnostica (Greenwich, Conn.) or Calbiochem (San Diego, Calif.)
Description: as §3
as §3, with “(Bieth” for “(Bieth, J. G. Methods in Enzymology 248: 59-84”, “bIl” for “bII”

Tryptase βII = target: T6, Tryptase βII (Homo sapiens, UniProt Q15661, N132K); assay: as above; format: biochemical; details: 10 μM Ac-PRNK-cmk, 5 minutes incubation, enzyme 50 nM
T6 construct: Secreted mature βI and βII tryptases were purified to homogeneity; made in house; host or cells: Pichia pastoris GS115
Description: as §3
as §3, with “(Bieth” for “(Bieth, J. G. Methods in Enzymology 248: 59-84”, “bIl” for “bII”

Tryptase βI = target: T7, Tryptase βI (Homo sapiens, UniProt Q15661); assay: as above; format: biochemical; details: 10 μM Ac-PRNK-cmk, 5 minutes incubation, enzyme 50 nM
T7 construct: Secreted mature βI and βII tryptases were purified to homogeneity; made in house; host or cells: Pichia pastoris GS115
Description: as §3
as §3, with “(Bieth” for “(Bieth, J. G. Methods in Enzymology 248: 59-84”, “bIl” for “bII”

tPA = target: T8, tPA (Homo sapiens, UniProt P00750); assay: as above; format: biochemical; details: 100 μM Ac-PRNK-cmk, 5 minutes incubation, enzyme 50 nM
T8 construct: purchased American Diagnostica (Greenwich, Conn.)
Description: as §3
as §3, with “(Bieth” for “(Bieth, J. G. Methods in Enzymology 248: 59-84”, “bIl” for “bII”

Plasmin = target: T9, Plasmin (Homo sapiens, UniProt P00747); assay: as above; format: biochemical; details: 100 μM Ac-PRNK-cmk, 5 minutes incubation, enzyme 5 nM
T9 construct: Human thrombin, plasmin, and factor Xa were used as received; purchased Haematologic Technologies Inc. (Essex Jct., Vt.)
Description: as §3
as §3, with “(Bieth” for “(Bieth, J. G. Methods in Enzymology 248: 59-84”, “bIl” for “bII”

βII Tryptase [6] = target: T3, βII Tryptase; assay: Irreversible inhibitor kinetic analysis (progress curves), βII tryptase; format: biochemical; details: tryptase 1 nM, 30° C., 100 μM Ac-PRNK-ACC substrate
Description: as §3
(§4) Progress curves were obtained for tryptase (1 nM) inactivation by multiple concentrations of Ac-PRNK-cmk (50 nM to 10 μM). […]

βI Tryptase [7] = target: T2, βI Tryptase; assay: Irreversible inhibitor kinetic analysis (progress curves), βI tryptase; format: biochemical; details: tryptase 1 nM, 30° C., 100 μM Ac-PRNK-ACC substrate
Description: as §3, §4

Factor Xa = assay: Protease inhibition by Ac-PRNK-cmk, residual activity; format: biochemical, human; details: 100 μM Ac-PRNK-cmk, 5 minutes incubation, enzyme 50 nM
Description: as §3, §4

[8] = range stated over tryptase βI and βII

T2 sequence (Q15661 31-275): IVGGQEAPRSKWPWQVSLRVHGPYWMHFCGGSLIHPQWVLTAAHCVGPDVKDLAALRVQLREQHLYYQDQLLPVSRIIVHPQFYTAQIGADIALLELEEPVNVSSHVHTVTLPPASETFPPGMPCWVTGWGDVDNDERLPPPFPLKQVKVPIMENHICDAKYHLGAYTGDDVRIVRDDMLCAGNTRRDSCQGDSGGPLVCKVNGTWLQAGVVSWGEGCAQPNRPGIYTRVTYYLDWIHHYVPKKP
T3 sequence (Q15661 31-275 N132K): as the sequence (Q15661 31-275) above, with N102K counted along it
T8 sequence (P00750 36-562): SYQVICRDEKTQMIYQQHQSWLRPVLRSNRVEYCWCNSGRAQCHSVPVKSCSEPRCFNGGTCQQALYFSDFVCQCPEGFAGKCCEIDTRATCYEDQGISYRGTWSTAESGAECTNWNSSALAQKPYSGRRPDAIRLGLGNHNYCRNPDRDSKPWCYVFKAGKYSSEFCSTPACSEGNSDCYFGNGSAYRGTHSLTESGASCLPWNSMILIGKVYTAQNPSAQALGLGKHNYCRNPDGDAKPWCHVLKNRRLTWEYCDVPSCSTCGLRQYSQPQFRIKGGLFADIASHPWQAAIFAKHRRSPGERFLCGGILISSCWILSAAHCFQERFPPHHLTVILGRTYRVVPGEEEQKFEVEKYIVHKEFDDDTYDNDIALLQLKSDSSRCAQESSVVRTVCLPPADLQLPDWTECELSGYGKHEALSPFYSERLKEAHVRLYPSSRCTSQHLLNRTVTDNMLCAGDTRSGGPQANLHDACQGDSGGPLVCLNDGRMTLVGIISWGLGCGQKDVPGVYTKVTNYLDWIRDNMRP
T7 sequence (Q15661 31-275): as the sequence (Q15661 31-275) above
T9 sequence (P00747 581-810 limits assumed): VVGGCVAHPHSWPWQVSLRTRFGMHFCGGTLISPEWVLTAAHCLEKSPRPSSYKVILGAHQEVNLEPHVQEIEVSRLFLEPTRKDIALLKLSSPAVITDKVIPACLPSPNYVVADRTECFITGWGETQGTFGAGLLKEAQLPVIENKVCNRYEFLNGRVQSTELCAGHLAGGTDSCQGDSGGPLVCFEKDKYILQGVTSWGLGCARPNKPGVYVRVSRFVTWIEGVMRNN
T9 sequence (P00747 97-580 partner limits assumed): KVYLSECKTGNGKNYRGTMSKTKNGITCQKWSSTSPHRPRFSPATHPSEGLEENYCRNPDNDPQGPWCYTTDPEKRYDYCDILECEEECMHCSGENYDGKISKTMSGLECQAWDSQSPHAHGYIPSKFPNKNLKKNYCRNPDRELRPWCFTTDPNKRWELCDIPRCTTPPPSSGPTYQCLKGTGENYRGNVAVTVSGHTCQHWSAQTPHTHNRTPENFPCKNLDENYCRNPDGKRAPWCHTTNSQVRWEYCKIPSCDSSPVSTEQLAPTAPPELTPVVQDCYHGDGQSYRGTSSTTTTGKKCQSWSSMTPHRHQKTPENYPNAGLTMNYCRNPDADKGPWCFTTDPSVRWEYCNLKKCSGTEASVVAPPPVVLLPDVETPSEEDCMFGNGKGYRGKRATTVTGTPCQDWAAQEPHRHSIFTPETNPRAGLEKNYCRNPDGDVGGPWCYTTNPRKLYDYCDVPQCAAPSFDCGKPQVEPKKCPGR
T4 sequence (P25779 123-337): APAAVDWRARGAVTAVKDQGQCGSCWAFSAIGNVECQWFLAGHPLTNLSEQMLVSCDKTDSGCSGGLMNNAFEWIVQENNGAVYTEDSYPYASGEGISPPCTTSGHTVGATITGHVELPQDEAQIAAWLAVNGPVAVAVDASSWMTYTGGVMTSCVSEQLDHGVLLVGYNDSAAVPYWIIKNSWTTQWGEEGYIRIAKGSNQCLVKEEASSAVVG
T6 sequence (Q15661 31-275 N132K): as the sequence (Q15661 31-275) above, with N102K counted along it

Compound: CC(=O)N[C@@H](CC(C)C)C(=O)NCC(=O)N1CCC[C@H]1C(=O)N[C@@H](CCCCN)C(=O)Nc1ccc2c(CC(N)=O)cc(=O)oc2c1 [Ac-Leu-Gly-Pro-Lys--ACC] (Ac-LGPK-{ACC})
- Km (thrombin [1]): 195 ± 30 µM

Compound: 7-Nle-Thr-Pro-Lys-AMC [reference compound]
- λmax, em [2]: 390 nm
- λmax, ex [2]: 330 nm
- RFU/nM1 [2]: 3.3 RFU/nM
- RFU/nM2 [2]: 2.2 RFU/nM

Compound: CC(=O)N1CCC[C@H]1C(=O)N[C@@H](C)C(=O)N[C@@H](CC(N)=O)C(=O)N[C@@H](CCCCN)C(=O)Nc1ccc2c(CC(N)=O)cc(=O)oc2c1 [Ac-PANK-ACC] (Ac-PANK-{ACC})
- Km (βI Tryptase [3]): 111 ± 9.8 µM
- Km (βII Tryptase [4]): 133 ± 15.6 µM

Compound: CCCC[C@H](NC(C)=O)C(=O)N[C@H](C(=O)N1CCC[C@H]1C(=O)N[C@@H](CCCCN)C(=O)Nc1ccc2c(CC(N)=O)cc(=O)oc2c1)[C@@H](C)O [Ac-Nle Thr-Pro-Lys--ACC] (Ac-[Nle]TPK-{ACC})
- Km (thrombin [1]): 125 ± 13 µM

Compound: CC(=O)N1CCC[C@H]1C(=O)N[C@@H](CCCNC(=N)N)C(=O)N[C@H](C(=O)N[C@@H](CCCCN)C(=O)Nc1ccc2c(CC(N)=O)cc(=O)oc2c1)[C@@H](C)O [Ac-PRTK-ACC] (Ac-PRTK-{ACC})
- Km (βI Tryptase [3]): 14.7 ± 1.4 µM
- Km (βII Tryptase [4]): 23.4 ± 2.3 µM

Compound: Ac-Leu-Thr-Phe-Lys-ACC (Ac-LTFK-{ACC}; SMILES CC(=O)N[C@@H](CC(C)C)C(=O)N[C@H](C(=O)N[C@@H](Cc1ccccc1)C(=O)N[C@@H](CCCCN)C(=O)Nc1ccc2c(CC(N)=O)cc(=O)oc2c1)[C@@H](C)O)
- cleavage products observed (cruzain): cleavage between Thr-Phe

Compound: CC(=O)N1CCC[C@H]1C(=O)N[C@@H](CCCNC(=N)N)C(=O)N[C@@H](CC(N)=O)C(=O)N[C@@H](CCCCN)C(=O)Nc1ccc2c(CC(N)=O)cc(=O)oc2c1 [Ac-PRNK-ACC] (Ac-PRNK-{ACC})
- Km (βI Tryptase [3]): 8.9 ± 0.9 µM
- Km (βII Tryptase [4]): 14.5 ± 1.9 µM

Compound: NC(=O)Cc1cc(=O)oc2cc(N)ccc12 [7-Amino-4-Carbamoylmethyl-coumarin (ACC), 7-amino-4-carbamoylmethyl-coumarin]
- λmax, em [2]: 450 nm
- λmax, ex [2]: 350 nm
- fluorescence yield relative to the AMC coumarin ([2]; excitation 380 nm, emission 460 nm): approximately 2.8 fold
- RFU/nM1 [2]: 5750 RFU/nM
- RFU/nM2 [2]: 4390 RFU/nM

Compound: 7-Nle-Thr-Pro-Lys-ACC
- λmax, em [2]: 400 nm
- λmax, ex [2]: 325 nm
- RFU/nM1 [2]: 6.4 RFU/nM
- RFU/nM2 [2]: 4.6 RFU/nM

Compound: CC(=O)N1CCC[C@H]1C(=O)N[C@@H](CCCNC(=N)N)C(=O)N[C@@H](CC(N)=O)C(=O)N[C@@H](CCCNC(=N)N)C(=O)Nc1ccc2c(CC(N)=O)cc(=O)oc2c1 [Ac-PRNR-ACC] (Ac-PRNR-{ACC})
- activity relative to Ac-PRNK-ACC substrate (βI Tryptase [3]; [8]): 70-90%
- Km (βI Tryptase [3]): 16.5 ± 2.7 µM
- activity relative to Ac-PRNK-ACC substrate (βII Tryptase [4]; [8]): 70-90%
- Km (βII Tryptase [4]): 18.6 ± 2.6 µM

Compound: CC(=O)N[C@@H](CC(C)C)C(=O)NCC(=O)N1CCC[C@H]1C(=O)N[C@@H](CCCCN)C(=O)Nc1ccc2c(C)cc(=O)oc2c1 [Ac-Leu-Gly-Pro-Lys-AMC] (Ac-LGPK-{AMC})
- Km (thrombin [1]): 160 ± 25 µM
- kcat (thrombin [1]): 2.3 ± 0.2 s⁻¹

Compound: Ac-PRNK-CH2Cl
- Percent Inhibition (thrombin [5]): 0
- Percent Inhibition (uPA): 34
- Percent Inhibition (Tryptase βII): 95
- Percent Inhibition (Tryptase βI): 95
- Percent Inhibition (tPA): 0
- Percent Inhibition (Plasmin): 63
- association rate constant, kass (βII Tryptase [6]): 5000 ± 200 M⁻¹ s⁻¹
- association rate constant, kass (βI Tryptase [7]): 5000 ± 200 M⁻¹ s⁻¹
- Percent Inhibition (Factor Xa): 0

Compound: CCCC[C@H](NC(C)=O)C(=O)N[C@H](C(=O)N1CCC[C@H]1C(=O)N[C@@H](CCCCN)C(=O)Nc1ccc2c(C)cc(=O)oc2c1)[C@@H](C)O [Ac-Nle-Thr-Pro-Lys-AMC] (Ac-[Nle]TPK-{AMC})
- Km (thrombin [1]): 115 ± 10 µM
- kcat (thrombin [1]): 31.0 ± 0.9 s⁻¹
